Data taken from PubChem BioAssay AID1918937 (Molecular Pharmacology Branch, DTP, NCI, 2023).
“And” between values parts separate entries of the source, which are not always exact repeats. Equal entries are not always repeated.

Tested on: 521955-158-R2-J5-PDC complex spheroid viability
Test: Anticancer human tumor 521955-158-R2-J5-PDC patient-derived pancreatic carcinoma cell line growth inhibition
Details: for viability, T/C: stronger effect = lower value
Excerpt: Multicellular complex tumor spheroid response to LSD1 Inhibitor Iadademstat in combination with a variety of drugs and investigational agents in selected tumor cell lines
The current study was undertaken to assess response to LSD1 inhibitors in combination with standard-of-care drugs and investigational agents in solid tumor complex spheroid models as well as in the K-562 leukemia. Complex spheroids include a stromal component modeled by human endothelial cells (HUVEC) and fibroblasts modeled by human mesenchymal stem cells (MSCs). The concentration ranges selected for each drug and investigational agent were based upon clinically achievable concentrations if the clinical Cmax of the agent was known.
Compounds. The drugs and investigational agents used in this study are listed on Table 1. All of the agents used, including staurosporine (NSC755774) and gemcitabine (NSC613327), were obtained from the Developmental Therapeutics Program, NCI. FDA-approved anticancer drugs are available from the NCI at http://dtp.nci.nih.gov/branches/dscb/oncology_drugset_explanation.html. Drugs and investigational agents were >95% pure by proton nuclear magnetic resonance (NMR) and liquid chromatography/mass spectrometry (LC/MS). Stock solutions were prepared at 400x in DMSO, stored at -70 degrees C, and diluted in fresh medium prior to their use. The final concentration of DMSO in cell culture wells never exceeded 0.25% (v/v). The FDA-approved anticancer drug set is available from the Developmental Therapeutics Program at https://dtp.cancer.gov/organization/dscb/obtaining/available_plates.htm. All drugs and investigational agents were tested over a range starting from a high concentration at or near the clinical Cmax and decreasing in half-log increments. If the clinical Cmax for an agent had not been determined, the highest concentration tested was 10 microM.
Cell Lines. The patient-derived cancer cell (PDC) lines: 292921-168-R-J2-PDC, K24384-001-R-PDC, and 521955-158-R2-J5-PDC pancreatic carcinomas, 556581-035-R-J1 ovarian carcinoma, 324938-238-R-J1-PDC, 855422-203-R-J1-PDC and 883617-216-R-J1-PDC urothelial bladder carcinomas, 743489-274-T-PDC renal cell carcinoma, 138582-R-J1 Merkel cell tumor, K60290-347-R-J1 and K57222-313-R-J1-PDC glioblastomas, 653999-131-R-J2-PDC, LG0703-F948-PDC, and 349418-098-R-PDC non-small cell lung carcinomas, 885512-296-R-J2-PDC, 171881-019-R-J1-PDC breast carcinomas and 186277-243-T-J2-PDC and 233499-124-R-J2-PDC colon carcinomas were obtained from the NCI Patient-Derived Models Repository (PDMR, https://pdmr.cancer.gov). The established cell lines NCI/ADR-RES (RRID:CVCL_14520 and OVCAR-5 (RRID:CVCL_1628) ovarian carcinomas, 786-O (RRID:CVCL_1051) and A498 (RRID:CVCL_A498) renal cell carcinoma, NCI-H211 (ATCC, cat. CRL-5824; RRID:CVCL_1529), NCI-H196 (ATCC, cat. CRL-5823, RRID:CVCL_1509), SW 1271 (ATCC, cat. CRL-2177, RRID:CVCL_1716) and NCI-H1876 (ATCC, cat. CRL-5902, RRID:CVCL_1503) small cell lung carcinomas, MDA-MB-231 (RRID:CVCL_0062) and MDA-MB-468 (RRID:CVCL_0419)breast carcinomas (10-12). Pooled donor human umbilical vein endothelial cells (HUVEC, Lonza, cat. CC-2519) and human mesenchymal stem cells (hMSC, Lonza, cat. PT-2501) were purchased from Lonza (Walkersville, MD).
Cell Culture. All cells were maintained in an incubator at 37 degrees C and 5% CO2 with 95% humidity. The PDC lines were cultured according to standard operating procedures established by the NCI PDMR (https://pdmr.cancer.gov). Briefly all PDCs were thawed and cultured in Matrigel-coated flasks prepared with a working solution of 1X Ham's F-12 nutrient mix, without supplementation (Invitrogen, Waltham, MA, cat. 11765054), 100 U/mL penicillin-streptomycin (Invitrogen, cat. 15140122), and 2.5% Matrigel (Corning Inc., Corning, NY, cat. 354248) for the first three passages. […]
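Also: spheroids exposed to agents for seven days.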
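For viability, T/C in this document: percent of DMSO vehicle control luminescence viability.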

Row | Structure (SMILES) | viability, T/C (compound 0.00316 µM) | viability, T/C (compound 0.01 µM) | viability, T/C (compound 0.0316 µM) | viability, T/C (compound 0.1 µM) | IC50 (curve of compound) | viability, T/C (compound 0.316 µM) | viability, T/C (compound 1 µM) | viability, T/C (compound 0.00949 µM) | viability, T/C (compound 0.03 µM) | viability, T/C (compound 0.0949 µM) | viability, T/C (compound 0.3 µM) | further results
1 | CC(C)CC(NC(=O)C(Cc1ccccc1)NC(=O)c1cnccn1)B(O)O (centres undefined) | 0.29% and 0.43% | 0.18% and 0.38% | 0.31% and 0.4% | 0.21% and 0.45% | 0.488 nM and 0.537 nM |  |  |  |  |  |  | viability, T/C (compound 0.000316 µM): 79.9% and 91.8%; viability, T/C (compound 0.001 µM): 0.42% and 0.86%
2 | CC(C)CC(NC(=O)CNC(=O)c1cc(Cl)ccc1Cl)B1OC(=O)CC(CC(=O)O)(C(=O)O)O1 (centres undefined) | 82.2% and 97.3% | 7.33% and 16.1% | 0.46% and 1.77% | 0.41% and 0.54% | 5.19 nM and 6.18 nM |  |  |  |  |  |  | viability, T/C (compound 0.000316 µM): 107% and 105%; viability, T/C (compound 0.001 µM): 106%
3 | CC(C)c1c(-c2ccccc2)nc2c(C#N)c[nH]n2c1=O |  |  | 104% and 98.1% | 108% and 97.9% | > 10000 nM | 105% and 104% | 101% and 86.4% |  |  |  |  | viability, T/C (compound 3.16 µM): 102% and 94.2%; viability, T/C (compound 10 µM): 86.5% and 85.9%
4 | CC1(C)CCC(CN2CCN(c3ccc(C(=O)NS(=O)(=O)c4ccc(NCC5CCOCC5)c([N+](=O)[O-])c4)c(Oc4cnc5[nH]ccc5c4)c3)CC2)=C(c2ccc(Cl)cc2)C1 |  |  | 103% and 110% | 112% and 110% | 3960 nM and 4600 nM | 107% and 115% | 103% and 111% |  |  |  |  | viability, T/C (compound 3.16 µM): 62% and 73.6%; viability, T/C (compound 10 µM): 0.69% and 0.97%
5 | CC1COCCN1c1cc(-c2ccnn2C)c2ccnc(-c3ccn[nH]3)c2n1 (centres undefined) | 10.8% and 14.6% | 10.8% and 12.3% | 11.1% and 13% | 18.1% and 21.3% | < 3.16 nM | 21.6% and 24.3% | 12.5% and 17.1% |  |  |  |  | 
6 | CC1COCCN1c1cc(C2(S(C)(=N)=O)CC2)nc(-c2ccnc3[nH]ccc23)n1 (centres undefined) |  |  | 108% and 112% | 102% and 100% | 593 nM and 655 nM | 94.3% and 111% | 13.1% and 18.6% |  |  |  |  | viability, T/C (compound 3.16 µM): 9.05% and 12.5%; viability, T/C (compound 10 µM): 13.5% and 17.8%
7 | CCN(c1cc(-c2ccc(CN3CCOCC3)cc2)cc(C(=O)NCc2c(C)cc(C)[nH]c2=O)c1C)C1CCOCC1 |  |  |  |  | 2600 nM and > 3000 nM |  |  | 102% and 106% | 100% and 106% | 98.5% and 102% | 83.5% and 102% | viability, T/C (compound 0.949 µM): 73.1% and 87.9%; viability, T/C (compound 3 µM): 46.6% and 75%
8 | CC[C@@]1(O)C(=O)OCc2c1cc1n(c2=O)Cc2cc3c(CN(C)C)c(O)ccc3nc2-1 | 77.4% and 85.3% | 14.3% and 24.3% | 7.49% and 11.1% | 6.01% and 6.55% | 5.21 nM and 6.17 nM |  |  |  |  |  |  | viability, T/C (compound 0.000316 µM): 108% and 106%; viability, T/C (compound 0.001 µM): 109% and 103%
9 | CCc1c2c(nc3ccc(O)cc13)-c1cc3c(c(=O)n1C2)COC(=O)[C@]3(O)CC |  |  |  |  | < 0.949 nM |  |  | 1.12% and 1.08% | 0.53% and 1.39% | 0.45% and 1.25% | 0.6% and 1.68% | viability, T/C (compound 0.000949 µM): 4.87% and 6%; viability, T/C (compound 0.003 µM): 3.58% and 4.94%
10 | COc1cc(C2c3cc4c(cc3C(OC3OC5COC(C)OC5C(O)C3O)C3COC(=O)C23)OCO4)cc(OC)c1O (centres undefined) |  |  |  |  | 71.5 nM and 151 nM |  |  | 98.3% and 103% | 88.7% and 100% | 36.7% and 63.7% | 16.6% and 28.2% | viability, T/C (compound 0.949 µM): 9.58% and 15.6%; viability, T/C (compound 3 µM): 8.64% and 9.05%
11 | COc1cc(Nc2ncc3c(n2)-c2ccc(Cl)cc2C(c2c(F)cccc2OC)=NC3)ccc1C(=O)O | 46.9% and 75.9% | 56.3% and 81.6% | 57.4% and 74.7% | 46.7% and 67.2% | 154 nM and > 1000 nM | 49% and 61.8% | 42% and 61.7% |  |  |  |  | 
12 | COc1ccc([C@@H](O)c2cc(-c3ncnc4cc(N5CCOCC5)ccc34)c(F)cc2Cl)nn1 |  |  | 99.8% and 97.6% | 87% and 104% | 1550 nM and 3390 nM | 73.6% and 84.4% | 57.1% and 63.2% |  |  |  |  | viability, T/C (compound 3.16 µM): 38.6% and 57.8%; viability, T/C (compound 10 µM): 22.4% and 24.5%
13 | Cn1ncnc1C1c2n[nH]c(=O)c3cc(F)cc(c23)NC1c1ccc(F)cc1 (centres undefined) | 95.6% and 91.6% | 96.3% and 103% | 91.7% and 89.2% | 86.4% and 98% | > 100 nM |  |  |  |  |  |  | viability, T/C (compound 0.000316 µM): 102% and 101%; viability, T/C (compound 0.001 µM): 97.6% and 112%
14 | NC1CC1c1ccc(-c2cccc(O)c2)cc1 (centres undefined) |  |  |  | 78.3% |  |  |  |  |  |  |  | IC50 (compound alone, run of 02/21/2022): > 10000 nM
15 | NC1CCC(NC2CC2c2ccccc2)CC1 (centres undefined) |  |  |  |  |  | 92.2% [middle of 4 runs] |  |  |  |  |  | IC50 (compound alone, run of 02/15/2022): > 10000 nM
16 | NS(=O)(=O)OCC1CC(n2ccc3c(NC4CCc5ccccc54)ncnc32)CC1O (centres undefined) |  |  |  |  | 31.9 nM and 67 nM |  |  | 79% and 92.2% | 51.8% and 75% | 24.6% and 38.1% | 16.3% and 20.5% | viability, T/C (compound 0.949 µM): 14.1% and 15.6%; viability, T/C (compound 3 µM): 9.5% and 9.51%
17 | Nc1ccccc1NC(=O)c1ccc(CNC(=O)OCc2cccnc2)cc1 |  |  |  |  | 324 nM and 508 nM |  |  | 105% and 117% | 102% and 112% | 83.6% and 104% | 56.4% and 70.6% | viability, T/C (compound 0.949 µM): 11.1% and 25.3%; viability, T/C (compound 3 µM): 0.41% and 0.46%
18 | Nc1ccn(C2OC(CO)C(O)C2(F)F)c(=O)n1 (centres undefined) |  |  |  |  | 71.1 nM and 96.5 nM |  |  | 97.3% and 98.3% | 73.4% and 89.6% | 43% and 50.5% | 12% and 17.5% | viability, T/C (compound 0.000949 µM): 106% and 95.4%; viability, T/C (compound 0.003 µM): 112% and 89%
19 | Nc1ncn(C2CC(O)C(CO)O2)c(=O)n1 (centres undefined) | 99.5% and 107% | 103% and 102% | 96.7% and 96.2% | 81.8% and 84.8% | > 1000 nM | 79% and 74.5% | 64.4% and 52.7% |  |  |  |  | 
20 | Nc1ncn(C2CC(O)C(CO)S2)c(=O)n1 (centres undefined) |  |  |  |  | 226 nM and > 300 nM |  |  | 104% and 105% | 93.2% and 90.9% | 77.6% and 73.8% | 41.2% and 53.5% | viability, T/C (compound 0.000949 µM): 103% and 99.3%; viability, T/C (compound 0.003 µM): 105% and 110%
21 | O=C(C=Cc1cccc(S(=O)(=O)Nc2ccccc2)c1)NO |  |  |  |  | > 3000 nM and 619 nM |  |  | 114% | 108% and 119% | 91.1% and 104% | 48.3% and 70.4% | viability, T/C (compound 0.949 µM): 10.4% and 38.4%
22 | O=C(C=Cn1cnc(-c2cc(C(F)(F)F)cc(C(F)(F)F)c2)n1)NNc1cnccn1 | 44% and 57% | 36.4% and 61.1% | 40.2% and 68% | 31.9% and 73.8% |  | 15.7% and 36.3% | 11.8% and 16.6% |  |  |  |  | 
23 | O=C(c1cc(Cc2n[nH]c(=O)c3ccccc23)ccc1F)N1CCN(C(=O)C2CC2)CC1 |  |  | 95.7% and 102% | 103% and 100% | > 10000 nM | 100% and 104% | 100% and 97.1% |  |  |  |  | viability, T/C (compound 3.16 µM): 90.8% and 96.1%; viability, T/C (compound 10 µM): 55.5% and 78.5%
